From ChEMBL document CHEMBL2029275, “Structure-activity relationship of a series of non peptidic RGD integrin antagonists targeting α5β1: part 2” (Bioorg Med Chem Lett, 2012)

What was measured:
Integrin alpha-5/beta-1 [1] = target: T1, Integrin alpha-5/beta-1 (Homo sapiens, UniProt P05556+P08648); assay: Antagonist activity at integrin alpha5beta1 in human A375M cells assessed as inhibition of cell adhesion in presence of Mg2+ and MK-0429; type: functional, cell-based
Integrin alpha-5/beta-1 [2] = target: T1, Integrin alpha-5/beta-1; assay: Antagonist activity at integrin alpha5beta1 in human K562 cells assessed as inhibition of cell adhesion in presence of human serum albumin; type: functional, cell-based
Integrin alpha-V/beta-3 = Integrin alpha-V/beta-3 (Homo sapiens, UniProt P05106+P06756); assay: Antagonist activity at integrin alphaVbeta3 in human A375M cells assessed as cell adhesion to fibrinogen in presence of Mg2+; type: functional, cell-based
Sequence of Integrin alpha-V/beta-3 (P05106 27-788 limits assumed): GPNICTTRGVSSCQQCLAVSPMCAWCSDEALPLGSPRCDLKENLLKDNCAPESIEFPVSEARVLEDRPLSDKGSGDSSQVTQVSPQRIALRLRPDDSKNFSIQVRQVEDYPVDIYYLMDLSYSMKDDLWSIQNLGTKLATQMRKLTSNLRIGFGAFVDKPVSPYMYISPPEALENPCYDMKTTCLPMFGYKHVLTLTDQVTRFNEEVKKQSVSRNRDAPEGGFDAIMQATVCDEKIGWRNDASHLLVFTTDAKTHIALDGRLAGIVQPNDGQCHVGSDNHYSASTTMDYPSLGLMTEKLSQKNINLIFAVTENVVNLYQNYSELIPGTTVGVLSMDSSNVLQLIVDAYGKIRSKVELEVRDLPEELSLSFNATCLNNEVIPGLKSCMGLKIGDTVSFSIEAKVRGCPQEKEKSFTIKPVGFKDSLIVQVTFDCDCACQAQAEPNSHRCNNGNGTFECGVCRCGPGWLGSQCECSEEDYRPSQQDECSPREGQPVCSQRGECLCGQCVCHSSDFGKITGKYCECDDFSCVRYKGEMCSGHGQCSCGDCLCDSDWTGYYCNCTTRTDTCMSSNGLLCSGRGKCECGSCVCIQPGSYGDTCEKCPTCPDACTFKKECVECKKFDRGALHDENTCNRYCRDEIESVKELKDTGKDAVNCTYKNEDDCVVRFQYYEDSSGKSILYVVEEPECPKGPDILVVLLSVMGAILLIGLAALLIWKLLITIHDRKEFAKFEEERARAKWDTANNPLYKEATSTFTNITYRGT
Sequence of Integrin alpha-V/beta-3 (P06756 31-889 limits assumed): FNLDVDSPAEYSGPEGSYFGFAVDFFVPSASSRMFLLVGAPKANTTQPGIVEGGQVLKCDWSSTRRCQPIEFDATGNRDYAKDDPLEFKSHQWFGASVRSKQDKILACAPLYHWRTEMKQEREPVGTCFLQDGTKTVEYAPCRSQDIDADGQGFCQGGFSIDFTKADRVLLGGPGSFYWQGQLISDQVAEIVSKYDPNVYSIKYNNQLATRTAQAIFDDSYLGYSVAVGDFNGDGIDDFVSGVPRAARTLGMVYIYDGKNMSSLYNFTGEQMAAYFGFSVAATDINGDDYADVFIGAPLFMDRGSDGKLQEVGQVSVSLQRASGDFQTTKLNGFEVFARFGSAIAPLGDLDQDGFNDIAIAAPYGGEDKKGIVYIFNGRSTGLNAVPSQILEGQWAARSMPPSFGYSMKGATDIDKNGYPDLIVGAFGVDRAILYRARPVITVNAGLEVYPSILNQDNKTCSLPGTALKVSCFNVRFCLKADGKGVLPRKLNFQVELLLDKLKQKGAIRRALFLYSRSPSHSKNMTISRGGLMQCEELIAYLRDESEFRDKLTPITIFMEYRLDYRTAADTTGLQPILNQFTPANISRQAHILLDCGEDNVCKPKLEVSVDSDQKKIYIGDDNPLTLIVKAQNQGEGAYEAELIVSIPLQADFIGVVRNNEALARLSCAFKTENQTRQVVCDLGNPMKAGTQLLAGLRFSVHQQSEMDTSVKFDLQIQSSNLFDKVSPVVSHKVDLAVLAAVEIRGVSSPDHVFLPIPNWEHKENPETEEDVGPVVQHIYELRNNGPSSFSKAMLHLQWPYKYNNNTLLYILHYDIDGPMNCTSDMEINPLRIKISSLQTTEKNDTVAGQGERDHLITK
Sequence of Integrin alpha-V/beta-3 (P06756 891-1048 limits assumed): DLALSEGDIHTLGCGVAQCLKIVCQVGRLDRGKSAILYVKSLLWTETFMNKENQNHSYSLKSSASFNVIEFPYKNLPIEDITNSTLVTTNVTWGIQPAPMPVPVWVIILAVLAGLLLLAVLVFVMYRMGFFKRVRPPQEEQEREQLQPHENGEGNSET

A375M = assay: Selectivity ratio of IC50 for integrin alphavbeta3alpha5beta1-mediated human A375M cells adhesion to fibronectin in absence of MK-0429 to IC50 for integrin alpha5beta1-mediated human A375M cells adhesion to fibronectin in presence of MK-0429; type: cell-based
[3] = target: Fibronectin receptor (Integrin alpha-5/beta-1 and alpha-V/beta-3) (Homo sapiens, UniProt P05106+P05556+P06756+P08648); assay: Antagonist activity at integrin alphavbeta3alpha5beta1 in human A375M cells assessed as inhibition of cell adhesion to fibronectin in presence of Mg2+; type: functional, cell-based
Integrin alpha-5/beta-1 [4] = target: T1, Integrin alpha-5/beta-1; assay: Antagonist activity at integrin alpha5beta1 in human K562 cells assessed as inhibition of cell adhesion; type: functional, cell-based
Integrin alpha-5/beta-1 [5] = target: T1, Integrin alpha-5/beta-1; assay: Binding affinity to integrin alpha5beta1; type: protein-complex assay
Rattus norvegicus = organism: Rattus norvegicus; assay: Free drug level in rat; type: ADME, organism-based; settings: in vivo
Homo sapiens = organism: Homo sapiens; assay: Free drug level in human; type: ADME, organism-based; settings: in vivo

T1 sequence (P05556 21-798 limits assumed): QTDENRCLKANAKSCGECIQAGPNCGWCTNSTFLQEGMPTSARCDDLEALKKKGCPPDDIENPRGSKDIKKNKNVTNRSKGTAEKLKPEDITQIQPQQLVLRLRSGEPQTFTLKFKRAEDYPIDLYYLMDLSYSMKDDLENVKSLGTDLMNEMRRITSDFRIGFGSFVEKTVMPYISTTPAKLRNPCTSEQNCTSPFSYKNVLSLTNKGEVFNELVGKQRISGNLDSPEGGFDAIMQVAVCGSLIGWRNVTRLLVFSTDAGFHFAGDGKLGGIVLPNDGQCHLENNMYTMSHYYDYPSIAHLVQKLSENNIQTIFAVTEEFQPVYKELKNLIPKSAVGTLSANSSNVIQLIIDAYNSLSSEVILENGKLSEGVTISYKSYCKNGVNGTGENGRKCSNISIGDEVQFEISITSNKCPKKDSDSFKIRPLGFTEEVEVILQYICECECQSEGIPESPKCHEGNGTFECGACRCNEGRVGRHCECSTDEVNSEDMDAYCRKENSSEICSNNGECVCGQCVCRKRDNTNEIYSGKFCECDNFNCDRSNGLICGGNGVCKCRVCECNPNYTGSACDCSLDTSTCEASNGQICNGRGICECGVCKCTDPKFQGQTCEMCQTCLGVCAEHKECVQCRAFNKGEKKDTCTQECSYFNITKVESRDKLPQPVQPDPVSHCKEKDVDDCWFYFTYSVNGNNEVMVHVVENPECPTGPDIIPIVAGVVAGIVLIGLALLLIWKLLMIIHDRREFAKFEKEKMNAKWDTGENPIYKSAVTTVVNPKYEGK
T1 sequence (P08648 42-894 limits assumed): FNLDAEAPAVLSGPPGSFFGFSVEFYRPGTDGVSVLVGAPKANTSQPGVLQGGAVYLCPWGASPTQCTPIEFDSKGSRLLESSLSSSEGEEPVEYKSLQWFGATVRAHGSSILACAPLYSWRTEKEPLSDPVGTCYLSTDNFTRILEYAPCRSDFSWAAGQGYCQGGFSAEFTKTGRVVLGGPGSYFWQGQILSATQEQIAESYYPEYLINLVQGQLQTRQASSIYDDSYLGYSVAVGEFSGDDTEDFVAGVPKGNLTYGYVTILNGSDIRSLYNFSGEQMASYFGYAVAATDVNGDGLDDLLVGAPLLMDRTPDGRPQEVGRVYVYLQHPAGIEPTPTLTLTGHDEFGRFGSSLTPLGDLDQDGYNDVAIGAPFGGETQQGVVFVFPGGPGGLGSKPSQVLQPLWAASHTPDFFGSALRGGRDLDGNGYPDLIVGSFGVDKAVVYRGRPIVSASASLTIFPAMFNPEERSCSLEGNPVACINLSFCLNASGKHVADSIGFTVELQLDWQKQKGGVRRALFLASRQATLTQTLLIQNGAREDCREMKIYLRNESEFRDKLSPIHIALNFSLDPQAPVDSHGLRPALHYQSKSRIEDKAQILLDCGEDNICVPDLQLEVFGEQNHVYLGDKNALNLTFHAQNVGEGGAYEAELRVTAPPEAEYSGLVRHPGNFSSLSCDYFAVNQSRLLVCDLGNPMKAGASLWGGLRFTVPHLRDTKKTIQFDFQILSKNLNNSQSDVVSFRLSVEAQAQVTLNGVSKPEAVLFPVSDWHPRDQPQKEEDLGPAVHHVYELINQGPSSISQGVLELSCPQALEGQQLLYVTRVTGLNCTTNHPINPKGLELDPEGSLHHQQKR
T1 sequence (P08648 895-1049 limits assumed): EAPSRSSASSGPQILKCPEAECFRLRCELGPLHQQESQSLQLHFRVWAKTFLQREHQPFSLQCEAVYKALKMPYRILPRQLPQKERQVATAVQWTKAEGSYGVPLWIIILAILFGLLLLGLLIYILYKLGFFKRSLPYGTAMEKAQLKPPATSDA

SMILES	IC50 (Integrin alpha-5/beta-1 [1])	IC50 (Integrin alpha-5/beta-1 [2])	IC50 (Integrin alpha-V/beta-3)	IC50 [3]	IC50 (Integrin alpha-5/beta-1 [4])	IC50 (Integrin alpha-5/beta-1 [5])	Drug uptake(free) (Rattus norvegicus)	Drug uptake(free) (Homo sapiens)	Ratio IC50 (A375M)
CNc1cccc(CCOc2ccc(C[C@H](NC(=O)c3c(C)cc(C)cc3C)C(=O)O)cc2)n1	57 nM	1500 nM	370 nM	380 nM	22 nM	1 nM	0.5%		6.7
CNc1cccc(CCOc2ccc(C[C@H](NC(=O)c3ccccc3Cl)C(=O)O)cc2)n1	240 nM	> 26000 nM	520 nM	540 nM	42 nM	3 nM	0.5%	0.4%	2.2
CNc1cccc(CCOc2ccc(C[C@H](NC(=O)c3sccc3Cl)C(=O)O)cc2)n1	2700 nM	36000 nM	2900 nM	2900 nM	52 nM		0.2%	0.1%	1.1
COc1ccc([C@H](CC(=O)O)N2CCN(CCCc3ccc4c(n3)NCCC4)C2=O)cn1	2200 nM		0.3 nM	810 nM	4600 nM				0.4
CNc1cccc(CCOc2ccc(C[C@H](NC(=O)c3c(Cl)cccc3Cl)C(=O)O)cc2C)n1	180 nM		600 nM	640 nM	81 nM	3 nM			3.6
CNc1cccc(CCOc2ccc(C[C@H](NC(=O)c3c(C)noc3C)C(=O)O)cc2)n1							3.8%		
CNc1cccc(CCOc2ccc(C[C@H](NC(=O)c3ccc(F)cc3C)C(=O)O)cc2)n1	470 nM	24000 nM	510 nM	510 nM	36 nM	9 nM	0.5%		1.1
CNc1cccc(CCOc2ccc(C[C@H](NC(=O)C3CCCCC3C)C(=O)O)cc2)n1 (stereo partly specified)	420 nM	29000 nM	960 nM	960 nM	71 nM		0.9%		2.3
CNc1cccc(CCOc2ccc(C[C@H](NC(=O)c3c(Cl)cccc3Cl)C(=O)O)cc2F)n1	76 nM		290 nM	330 nM	47 nM	2 nM			4.3
CNc1cccc(CCCc2csc(C[C@H](NC(=O)c3c(Cl)cccc3Cl)C(=O)O)c2)n1					400 nM	180 nM			
CNc1cccc(CCOc2ccc(C[C@H](NC(=O)c3c(F)cccc3Cl)C(=O)O)cc2)n1	160 nM	1500 nM	280 nM	280 nM	19 nM	< 1 nM	0.5%	0.6%	1.7
O=C(N[C@@H](Cc1ccc2oc(CCNc3ccccn3)cc2c1)C(=O)O)c1c(Cl)cccc1Cl					4000 nM	890 nM			
CNc1cccc(CCCc2ccc(C[C@H](NC(=O)c3c(Cl)cccc3Cl)C(=O)O)nc2)n1					110 nM	9 nM			
O=C(N[C@@H](Cc1cccc(OCCNc2ccccn2)c1)C(=O)O)c1c(Cl)cccc1Cl					> 290000 nM	5900 nM			
CNc1cccc(CCOc2ccc(C[C@H](NC(=O)c3ccc(F)cc3OC)C(=O)O)cc2)n1	6500 nM	> 100000 nM	8300 nM	8300 nM	820 nM	130 nM			1.3
CCc1cc(F)ccc1C(=O)N[C@@H](Cc1ccc(OCCc2cccc(NC)n2)cc1)C(=O)O	200 nM	5000 nM	340 nM	340 nM	24 nM	4 nM	0.4%		1.7
CNc1cccc(CCOc2ccc(C[C@H](NC(=O)c3ccc(F)cc3Cl)C(=O)O)cc2)n1	210 nM	11000 nM	440 nM	440 nM	33 nM	2 nM	0.3%	0.2%	2.1
CNc1cccc(CCOc2ccc(C[C@H](NC(=O)c3c(C)cccc3C)C(=O)O)cc2)n1	90 nM	420 nM	400 nM	400 nM	< 23 nM	1 nM	2.2%		4.5
O=C(N[C@@H](Cc1ccc(OCCNc2ccccn2)cc1)C(=O)O)c1c(Cl)cccc1Cl					2500 nM	82 nM			
CNc1cccc(CCOc2c(C)cc(C[C@H](NC(=O)c3c(Cl)cccc3Cl)C(=O)O)cc2C)n1	5800 nM		8800 nM	8800 nM	610 nM	21 nM			1.5
CNc1cccc(CCOc2ccc(C[C@H](NC(=O)c3c(Cl)cccc3Cl)C(=O)O)cc2)n1	97 nM	170 nM	230 nM	230 nM	7 nM	< 1 nM	1.1%	1%	2.3

Further lines, with some results ahead:

IC50 (Integrin alpha-5/beta-1 [1])	IC50 (Integrin alpha-5/beta-1 [2])	IC50 (Integrin alpha-V/beta-3)	IC50 [3]	IC50 (Integrin alpha-5/beta-1 [4])	IC50 (Integrin alpha-5/beta-1 [5])	Drug uptake(free) (Rattus norvegicus)	Drug uptake(free) (Homo sapiens)	SMILES	Ratio IC50 (A375M)
480 nM	7500 nM	830 nM	830 nM	39 nM		0.9%	0.25%	CNc1cccc(CCOc2ccc(C[C@H](NC(=O)C3(C)CCCCC3)C(=O)O)cc2)n1	1.8
250 nM	7700 nM	520 nM	510 nM	39 nM	3 nM	0.4%		CNc1cccc(CCOc2ccc(C[C@H](NC(=O)c3ccc(F)cc3C3CC3)C(=O)O)cc2)n1	2
52 nM	55 nM	130 nM	130 nM	< 4 nM	< 1 nM	3.3%	2.4%	CNc1cccc(CCOc2ccc(C[C@H](NC(=O)c3c(Cl)cncc3Cl)C(=O)O)cc2)n1	2.6
610 nM		2600 nM	2500 nM	120 nM	11 nM			O=C(N[C@@H](Cc1ccc(OCCCNc2ccccn2)cc1)C(=O)O)c1c(Cl)cccc1Cl	4.2
5400 nM		6700 nM	7400 nM	430 nM	49 nM			CNc1cccc(CCOc2ccc(C[C@H](NC(=O)c3ccccc3)C(=O)O)cc2)n1	1.4
				46 nM	8 nM			CNc1cccc(CCCc2ccc(C[C@H](NC(=O)c3c(Cl)cccc3Cl)C(=O)O)cc2)n1	
				20000 nM				O=C(N[C@@H](Cc1cccc(OCCCNc2ccccn2)c1)C(=O)O)c1c(Cl)cccc1Cl	
84 nM		620 nM	510 nM	26 nM	1 nM			CNc1cccc(CCOc2ccc(C[C@H](NC(=O)c3c(Cl)cccc3Cl)C(=O)O)nc2)n1	6.1
				76 nM	5 nM			CNc1cccc(CCCc2ccc(C[C@H](NC(=O)c3c(Cl)cccc3Cl)C(=O)O)cn2)n1	
570 nM		1200 nM	1200 nM	110 nM	6 nM			CNc1cccc(CCOc2ccc(C[C@H](NC(=O)c3c(Cl)cccc3Cl)C(=O)O)cn2)n1	2.1
180 nM		790 nM	800 nM					CNc1cccc(CCCc2ccc(C[C@H](NC(=O)c3c(Cl)cccc3Cl)C(=O)O)s2)n1	4.4
				510 nM	110 nM			CNc1cccc(CCOc2csc(C[C@H](NC(=O)c3c(Cl)cccc3Cl)C(=O)O)c2)n1	
				83000 nM	1900 nM			O=C(N[C@@H](Cc1cccc(OCCCCNc2ccccn2)c1)C(=O)O)c1c(Cl)cccc1Cl	
